In US20220274947A1, “NOVEL HETEROARYL-TRIAZOLE COMPOUNDS AS PESTICIDES” (Bayer Aktiengesellschaft, priority 2019, published 2022):

Assays:
Format in all cases: in vivo
[1] = test system: Aedes aegypti strain MONHEIM; assay: Aedes aegypti test (AEDSAE surface treatment & contact assay); conditions: exposure 30 minutes, 24 hours after contact, read-out: efficacy (mortality); for mortality at 4 mg/m2: surface concentration 4 mg/m^2, glazed tile; for mortality at 20 mg/m2: surface concentration 20 mg/m^2, glazed tile
In short: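 Compound dissolved in acetone (2 mg/ml) with 2000 ppm rapeseed oil methyl ester, pipetted onto glazed tile and dried. Adult mosquitoes exposed on the surface for 30 min; percent mortality scored 24 h after contact.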

[2] = test system: Rhipicephalus microplus; assay: Rhipicephalus (Boophilus) microplus dip test (BOOPMI Dip); conditions: 168 h, application rate 100 ppm, engorged adult female ticks, after 7 days, read-out: activity (efficacy: 100% means all eggs are infertile)
Experimental: Rhipicephalus (Boophilus) Microplus—Dip Test (BOOPMI Dip)
Test Animal: cattle ticks (Rhipicephalus microplus) strain parkhurst, SP-resistant Solvent: dimethyl sulfoxide
To produce a suitable preparation of active compound, 10 mg of active compound are dissolved in 0.5 mL solvent, and the concentrate is diluted with water to the desired concentration.
This compound solution is pipetted into tubes. 8-10 engorged, adult, female cattle ticks (Rhipicephalus microplus) are placed in perforated tubes. These tubes are immersed in the aqueous compound solution until the ticks are completely moistened. After the liquid has drained off, the ticks are transferred to a filter paper in a plastic tray and stored in a climate chamber.
After 7 days egg deposition of fertile eggs is monitored. Eggs where fertility is not visible are stored in a climate chamber till hatching after about 42 days. An efficacy of 100% means all eggs are infertile; 0% means all eggs are fertile.

[3] = test system: Anopheles funestus strain FUMOZ-R; assay: Anopheles funestus test (ANPHFU surface treatment & contact assay); conditions: exposure 30 minutes, 24 hours after contact, read-out: efficacy (mortality); for mortality at 20 mg/m2: surface concentration 20 mg/m^2, glazed tile; for mortality at 4 mg/m2: surface concentration 4 mg/m^2, glazed tile
In short: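 Adult FUMOZ-R mosquitoes were exposed 30 min to glazed tiles treated with compound in acetone plus 2000 ppm rapeseed oil methyl ester, after solvent evaporation. Percent mortality was scored 24 h after contact.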

[4] = test system: Musca domestica strain WHO—N; assay: Musca domestica test (MUSCDO surface treatment & contact assay); conditions: exposure 30 minutes, 24 hours after contact, read-out: efficacy (mortality); for mortality at 20 mg/m2: surface concentration 20 mg/m^2, glazed tile; for mortality at 4 mg/m2: surface concentration 4 mg/m^2, glazed tile
In short: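 Compound dissolved in acetone (2 mg/ml) with 2000 ppm rapeseed oil methyl ester and pipetted onto glazed tile; after acetone evaporation, adult flies exposed to dried surface for 30 minutes. Mortality (%) scored 24 hours after contact.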

[5] = test system: Rhipicephalus sanguineus; assay: Rhipicephalus sanguineus in-vitro contact test, adult brown dog ticks (RHIPSA Cont); conditions: 48 h, after 48 hours, read-out: activity (efficacy: 100% means all ticks are dead or moribund); for pest or weed control at 1 µg/cm2, 100 g/ha: application rate 1 μg/cm^2 (=100 g/ha); for pest or weed control at 5 µg/cm2, 500 g/ha: application rate 5 μg/cm^2 (=500 g/ha)
In short: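 Compound in acetone (9 mg/mL stock, diluted to test concentration) is coated onto inner walls of glass tubes by rotation for 2 h at 30 rpm. Efficacy is read after 48 h: ticks are tapped down and held on a 45-50° C plate for at most 5 min, and immotile or uncoordinated ones that fail to climb away count as dead or moribund.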

[6] = test system: Myzus persicae; assay: Myzus persicae oral test; conditions: 120 h, read-out: activity (mortality)
In short: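 Percent mortality was recorded at day 5, where 0% means no aphids killed. Compound prepared from an acetone concentrate diluted in water and combined with IPL41 medium containing sugar was offered to mixed-stage green peach aphids, which sucked it through a parafilm seal.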

[7] = test system: Nezara viridula; assay: Nezara viridula spray test; conditions: in Hordeum vulgare, 96 h, barley plants, larvae, after 4 days; for mortality at 100 g/ha: application rate 100 g/ha; for mortality at 500 g/ha: application rate 500 g/ha
In short: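 Mortality was read at day 4 (0% = no kill, 100% = total kill) after spraying larva-infested barley plants. Test solutions were made from an acetone/DMF concentrate diluted with water holding 1000 ppm alkylarylpolyglycol ether emulsifier.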

[8] = test system: Ctenocephalides felis; assay: Ctenocephalides felis oral test (CTECFE Oral); conditions: 48 h, read-out: activity (mortality)
In short: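 Percent mortality was recorded 2 days after roughly 20 adult Ctenocephalides felis fed on treated cattle blood. The blood was warmed to 37 °C beneath a parafilm membrane, with the fleas kept at room temperature. Compound was dissolved in DMSO and diluted into the blood to test concentration.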

Compound | mortality at 4 mg/m2 [1] | mortality at 20 mg/m2 [1] | pest or weed control at 100 ppm [2] | mortality at 20 mg/m2 [3] | mortality at 20 mg/m2 [4] | pest or weed control at 1 µg/cm2, 100 g/ha [5] | pest or weed control at 5 µg/cm2, 500 g/ha [5] | mortality at 4 ppm [6] | mortality at 100 g/ha [7] | mortality at 500 g/ha [7] | mortality at 100 ppm [8] | mortality at 4 mg/m2 [4] | mortality at 0.8 ppm [6] | mortality at 4 mg/m2 [3]
C[C@H](NC(=O)c1cc(Cl)cc(C(F)(F)F)c1)c1ncnn1-c1cc(-n2cncn2)ccn1 [II-43] | 80 to 100% | 80 to 100% | 100% | 80 to 100% | 80 to 100% | 100% | 100% |  |  |  |  |  |  | 
C[C@H](NC(=O)c1cc(C(F)(F)F)cc(C(F)(F)F)c1)c1ncnn1-c1ccc(C(=O)N(C)C2CC2)cn1 [II-38, 6-(5-{(1S)-1-[3,5-bis(trifluoromethyl)benzamido]ethyl}-1H-1,2,4-triazol-1-yl)-N-cyclopropyl-N-methylnicotinamide] | 80 to 100% | 80 to 100% | 80% | 80 to 100% |  | 100% | 100% | 100% | 100% | 100% |  |  |  | 
Cc1nc([C@H](C)NC(=O)c2cc(Br)cc(OC(F)(F)F)c2)n(-c2ccc(C#N)cn2)n1 [II-47] | 80 to 100% | 80 to 100% | 80% | 80 to 100% | 80 to 100% | 100% | 100% | 100% | 100% | 100% | 100% | 80 to 100% | 100% | 
C[C@H](NC(=O)c1cc(Cl)nc(C(F)(F)F)c1)c1ncnn1-c1ccc(C#N)cn1 [II-5] | 80 to 100% | 80 to 100% | 100% | 80 to 100% | 80 to 100% | 100% | 100% | 100% | 90% | 100% | 90% | 80 to 100% |  | 80 to 100%
CCN(C)C(=O)c1ccc(-n2nc(C)nc2[C@H](C)NC(=O)c2cc(C(F)(F)F)cc(C(F)(F)F)c2)nc1 [II-97] |  | 80 to 100% | 100% |  | 80 to 100% | 100% | 100% | 100% | 100% |  | 100% | 80 to 100% |  | 
Cc1nc([C@H](C)NC(=O)c2cc(Cl)cc(Br)c2)n(-c2ccc(C#N)cn2)n1 [II-50] | 80 to 100% | 80 to 100% | 100% |  | 80 to 100% | 100% | 100% | 100% |  |  | 100% | 80 to 100% | 100% | 80 to 100%
Cc1nc([C@H](C)NC(=O)c2cc(C#N)cc(C(F)(F)F)c2)n(-c2ccc(C#N)cn2)n1 [II-53] | 80 to 100% | 80 to 100% | 100% |  | 80 to 100% | 80% | 100% | 100% | 90% |  | 100% | 80 to 100% | 100% | 
Cc1nc([C@H](C)NC(=O)c2cncc(C(F)(F)F)c2)n(-c2ccc(C#N)cn2)n1 [II-63] | 80 to 100% | 80 to 100% | 100% |  | 80 to 100% | 100% | 100% | 100% | 100% |  | 100% |  |  | 
